What was measured:
[1] = target: T1, human V1a receptor (Homo sapiens, UniProt P37288); assay: Cellular in vitro assay for vasopressin receptor activity (V1a, aequorin luminescence); assay type: cell-based; details: for IC50: CHO cell line with human V1a receptor, [Arg8]-vasopressin at EC50, values are for the prodrug as such, read-out: IC50 hV1a; for ratio IC50 hV2/hV1a: selectivity ratio hV2/hV1a
T1 construct: expressed in transfected cells; host or cells: CHO K1 (Chinese hamster ovary), also stably transfected with a modified aequorin
Method: (§1) B-1. Cellular In Vitro Assay for Determining Vasopressin Receptor Activity
(§2) The identification of agonists and antagonists of the V1a and V2 vasopressin receptors from humans, rats and dogs as well as the quantification of the activity of the compounds of the invention is carried out using recombinant cell lines. These cell lines originally derive from a hamster's ovary epithelial cell (Chinese Hamster Ovary, CHO K1, ATCC: American Type Culture Collection, Manassas, Va. 20108, USA). The test cell lines constitutively express the human, rat or dog V1a or V2 receptors. In case of the Gaq-coupled V1a receptors, cells are also stably transfected with a modified form of the calcium-sensitive photoproteins aequorin (human and rat V1a) or obelin (dog V1a), which, after reconstitution with the cofactor coelenterazine, emit light when there are increases in free calcium concentrations [Rizzuto R, Simpson A W, Brini M, Pozzan T, Nature 358, 325-327 (1992); Illarionov B A, Bondar V S, Illarionova V A, Vysotski E S, Gene 153 (2), 273-274 (1995)]. The resulting vasopressin receptor cells react to stimulation of the recombinantly expressed Via receptors by intracellular release of calcium ions, which can be quantified by the resulting photoprotein luminescence. The Gs-coupled V2 receptors are stably transfected into cell lines expressing the gene for firefly luciferase under control of a CRE-responsible promoter. Activation of V2 receptors induces the activation of the CRE-responsive promoter via cAMP increase, thereby inducing the expression of firefly luciferase. The light emitted by photoproteins of V1a cell lines as well as the light emitted by firefly luciferase of V2 cell lines corresponds to the activation or inhibition of the respective vasopressin receptor. The bioluminescence of the cell lines is detected using a suitable luminometer [Milligan G, Marshall F, Rees S, Trends in Pharmacological Sciences 17, 235-237 (1996)].
Vasopressin V1a Receptor Cell Lines:
On the day before the assay, the cells are plated out in culture medium (DMEM/F12, 2% FCS, 2 mM glutamine, 10 mM HEPES, 5 μg/ml coelenterazine) in 384-well microtiter plates and kept in a cell incubator (96% humidity, 5% v/v CO2, 37C). On the day of the assay, test compounds in various concentrations are placed for 10 minutes in the wells of the microtiter plate before the agonist [Arg^8]-vasopressin at EC50 concentration is added. The resulting light signal is measured immediately in a luminometer.
(§3) Table 1A below lists individual IC50 values for the compounds of the invention (including racemic mixtures as well as separated enantiomers) that were obtained from cell lines transfected with the human V1a or V2 receptor. This means these IC50 values are the values for the prodrug and not for the underlying respective drug as the prodrug is mainly stable under the assay conditions.

[2] = target: T2, human V2 receptor (Homo sapiens, UniProt P30518); assay: Cellular in vitro assay for vasopressin receptor activity (V2, CRE-luciferase); assay type: cell-based; details: CHO cell line with human V2 receptor, [Arg8]-vasopressin at EC50; values are for the prodrug as such; read-out: IC50 hV2
T2 construct: expressed in transfected cells; host or cells: CHO K1 cells expressing firefly luciferase under a CRE-responsive promoter
Method: as §1, §2
Vasopressin V2 Receptor Cell Lines:
On the day before the assay, the cells are plated out in culture medium (DMEM/F12, 2% FCS, 2 mM glutamine, 10 mM HEPES) in 384-well microtiter plates and kept in a cell incubator (96% humidity, 5% v/v CO2, 37C). On the day of the assay, test compounds in various concentrations and the agonist [Arg^8]-vasopressin at EC50 concentration are added together to the wells, and plates are incubated for 3 hours in a cell incubator. Upon addition of the cell lysis reagent Triton™ and the substrate luciferin, luminescence of firefly luciferase is measured in a luminometer.
as §3

T1 sequence (P37288 whole entry): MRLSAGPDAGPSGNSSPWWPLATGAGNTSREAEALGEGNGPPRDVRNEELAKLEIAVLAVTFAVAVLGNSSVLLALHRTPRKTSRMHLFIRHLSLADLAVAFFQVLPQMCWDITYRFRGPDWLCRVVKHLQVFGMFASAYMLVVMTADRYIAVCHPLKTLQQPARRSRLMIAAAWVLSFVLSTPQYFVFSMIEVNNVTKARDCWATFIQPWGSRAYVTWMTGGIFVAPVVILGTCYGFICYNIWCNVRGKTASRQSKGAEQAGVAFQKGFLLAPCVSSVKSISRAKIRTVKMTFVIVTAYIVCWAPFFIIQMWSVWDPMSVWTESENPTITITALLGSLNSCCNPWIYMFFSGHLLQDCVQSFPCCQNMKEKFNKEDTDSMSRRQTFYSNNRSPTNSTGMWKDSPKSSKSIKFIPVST
T2 sequence (P30518 whole entry): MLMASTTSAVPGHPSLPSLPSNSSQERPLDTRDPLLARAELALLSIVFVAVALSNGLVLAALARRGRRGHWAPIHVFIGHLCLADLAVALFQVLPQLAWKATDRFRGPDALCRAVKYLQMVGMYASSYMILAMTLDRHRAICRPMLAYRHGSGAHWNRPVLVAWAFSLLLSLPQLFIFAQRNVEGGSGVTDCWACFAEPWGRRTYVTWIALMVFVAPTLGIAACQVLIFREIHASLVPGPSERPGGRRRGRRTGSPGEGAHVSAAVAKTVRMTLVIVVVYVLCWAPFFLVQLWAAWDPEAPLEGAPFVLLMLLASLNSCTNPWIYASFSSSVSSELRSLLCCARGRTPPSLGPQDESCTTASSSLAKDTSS

Row | Structure (SMILES) | IC50 [1] [nM] | ratio IC50 hV2/hV1a ([1]; Phosphate) | IC50 [2] [nM] | ratio IC50 hV2/hV1a [1]
1 | NC(=O)c1nc(Cn2nc(-c3ccc(Cl)cc3)n(C[C@H](OP(=O)([O-])O)C(F)(F)F)c2=O)nn1-c1ncccc1C(F)(F)F.[K+] [Example 2, Potassium (2S)-3-[1-({5-carbamoyl-1-[3-(trifluoromethyl)pyridin-2-yl]-1H-1,2,4-triazol-3-yl}-methyl)-3-(4-chlorophenyl)-5-oxo-1,5-dihydro-4H-1,2,4-triazol-4-yl]-1,1,1-trifluoropropan-2-yl Hydrogen Phosphate] | 39.5 | 15.7 | 620 | 
2 | NC(=O)c1nc(Cn2nc(-c3ccc(Cl)cc3)n(C[C@H](OP(=O)([O-])O)C(F)(F)F)c2=O)nn1-c1ncccc1C(F)(F)F.[K+] [Example 3, Potassium (2S)-3-[1-({5-carbamoyl-1-[3-(trifluoromethyl)pyridin-2-yl]-1H-1,2,4-triazol-3-yl}-methyl)-3-(4-chlorophenyl)-5-oxo-1,5-dihydro-4H-1,2,4-triazol-4-yl]-1,1,1-trifluoropropan-2-yl Hydrogen Phosphate] | 6.15 | 20.0 | 123 | 
3 | NC(=O)c1nc(Cn2nc(-c3ccc(Cl)cc3)n(C[C@H](OP(=O)([O-])O)C(F)(F)F)c2=O)nn1-c1ncccc1C(F)(F)F.[Na+] [Example 5, Sodium (2S)-3-[1-({5-carbamoyl-1-[3-(trifluoromethyl)pyridin-2-yl]-1H-1,2,4-triazol-3-yl}-methyl)-3-(4-chlorophenyl)-5-oxo-1,5-dihydro-4H-1,2,4-triazol-4-yl]-1,1,1-trifluoropropan-2-yl Hydrogen Phosphate] | 5.05 | 16.8 | 85 | 
4 | NC(=O)c1nc(Cn2nc(-c3ccc(Cl)cc3)n(C[C@H](OP(=O)([O-])[O-])C(F)(F)F)c2=O)nn1-c1ncccc1C(F)(F)F.[Ca+2] [Example 8, Calcium (2S)-3-[1-({5-carbamoyl-1-[3-(trifluoromethyl)pyridin-2-yl]-1H-1,2,4-triazol-3-yl}-methyl)-3-(4-chlorophenyl)-5-oxo-1,5-dihydro-4H-1,2,4-triazol-4-yl]-1,1,1-trifluoropropan-2-yl Phosphate] | 17 |  | 145 | 8.5
5 | NC(=O)c1nc(Cn2nc(-c3ccc(Cl)cc3)n(C[C@H](OP(=O)([O-])O)C(F)(F)F)c2=O)nn1-c1ccccc1C(F)(F)F.[K+] [Example 11, Potassium (2S)-3-[1-({5-carbamoyl-1-[2-(trifluoromethyl)phenyl]-1H-1,2,4-triazol-3-yl}methyl)-3-(4-chlorophenyl)-5-oxo-1,5-dihydro-4H-1,2,4-triazol-4-yl]-1,1,1-trifluoropropan-2-yl Hydrogen Phosphate] | 40.5 | 0.9 | 37 | 
6 | NC(=O)c1nc(Cn2nc(-c3ccc(Cl)cc3)n(C[C@H](OP(=O)([O-])O)C(F)(F)F)c2=O)nn1-c1ccccc1C(F)(F)F.[K+] [Example 12, Potassium (2S)-3-[1-({5-carbamoyl-1-[2-(trifluoromethyl)phenyl]-1H-1,2,4-triazol-3-yl}methyl)-3-(4-chlorophenyl)-5-oxo-1,5-dihydro-4H-1,2,4-triazol-4-yl]-1,1,1-trifluoropropan-2-yl Hydrogen Phosphate] | 16.5 | 1.5 | 24 | 
7 | NC(=O)c1nc(Cn2nc(-c3ccc(Cl)cc3)n(C[C@H](OP(=O)([O-])O)C(F)(F)F)c2=O)nn1-c1ccccc1C(F)(F)F.[Na+] [Example 13, Sodium (2S)-3-[1-({5-carbamoyl-1-[2-(trifluoromethyl)phenyl]-1H-1,2,4-triazol-3-yl}methyl)-3-(4-chlorophenyl)-5-oxo-1,5-dihydro-4H-1,2,4-triazol-4-yl]-1,1,1-trifluoropropan-2-yl Hydrogen Phosphate] | 19 | 1.4 | 26.5 | 
8 | NC(=O)c1nc(Cn2nc(-c3ccc(Cl)cc3)n(C[C@H](OP(=O)([O-])O)C(F)(F)F)c2=O)nn1-c1ccccc1C(F)(F)F.[Na+] [Example 14, Sodium (2S)-3-[1-({5-carbamoyl-1-[2-(trifluoromethyl)phenyl]-1H-1,2,4-triazol-3-yl}methyl)-3-(4-chlorophenyl)-5-oxo-1,5-dihydro-4H-1,2,4-triazol-4-yl]-1,1,1-trifluoropropan-2-yl Hydrogen Phosphate] | 19 | 1.0 | 18.5 | 
9 | NC(=O)c1nc(Cn2nc(-c3ccc(Cl)cc3)n(C[C@H](OP(=O)([O-])[O-])C(F)(F)F)c2=O)nn1-c1ccccc1C(F)(F)F.[Mg+2] [Example 15, Magnesium (2S)-3-[1-({5-carbamoyl-1-[2-(trifluoromethyl)phenyl]-1H-1,2,4-triazol-3-yl}methyl)-3-(4-chlorophenyl)-5-oxo-1,5-dihydro-4H-1,2,4-triazol-4-yl]-1,1,1-trifluoropropan-2-yl Phosphate] | 19.5 |  | 21 | 1.1
10 | NC(=O)c1nc(Cn2nc(-c3ccc(Cl)cc3)n(C[C@H](OP(=O)([O-])[O-])C(F)(F)F)c2=O)nn1-c1ccccc1C(F)(F)F.[Ca+2] [Example 16, Calcium (2S)-3-[1-({5-carbamoyl-1-[2-(trifluoromethyl)phenyl]-1H-1,2,4-triazol-3-yl}methyl)-3-(4-chlorophenyl)-5-oxo-1,5-dihydro-4H-1,2,4-triazol-4-yl]-1,1,1-trifluoropropan-2-yl Phosphate] | 29 |  | 30.5 | 1.1
11 | NC(=O)c1nc(Cn2nc(-c3ccc(Cl)cc3)n(C[C@H](OP(=O)([O-])O)C(F)(F)F)c2=O)nn1-c1ncccc1Cl.[K+] [Example 18, Potassium (2S)-3-[1-{[5-carbamoyl-1-(3-chloropyridin-2-yl)-1H-1,2,4-triazol-3-yl]methyl}-3-(4-chlorophenyl)-5-oxo-1,5-dihydro-4H-1,2,4-triazol-4-yl]-1,1,1-trifluoropropan-2-yl Hydrogen Phosphate] | 33.5 | 2.5 | 84 | 
12 | NC(=O)c1nc(Cn2nc(-c3ccc(Cl)cc3)n(C[C@H](OP(=O)([O-])O)C(F)(F)F)c2=O)nn1-c1ncccc1Cl.[K+] [Example 19, Potassium (2S)-3-[1-{[5-carbamoyl-1-(3-chloropyridin-2-yl)-1H-1,2,4-triazol-3-yl]methyl}-3-(4-chlorophenyl)-5-oxo-1,5-dihydro-4H-1,2,4-triazol-4-yl]-1,1,1-trifluoropropan-2-yl Hydrogen Phosphate] | 24 | 2.1 | 51 | 
13 | NC(=O)c1nc(Cn2nc(-c3ccc(Cl)cc3)n(C[C@H](OP(=O)([O-])O)C(F)(F)F)c2=O)nn1-c1ncccc1Cl.[Na+] [Example 21, Sodium (2S)-3-[1-{[5-carbamoyl-1-(3-chloropyridin-2-yl)-1H-1,2,4-triazol-3-yl]methyl}-3-(4-chlorophenyl)-5-oxo-1,5-dihydro-4H-1,2,4-triazol-4-yl]-1,1,1-trifluoropropan-2-yl Hydrogen Phosphate] | 21 | 1.8 | 38 | 
14 | NC(=O)c1nc(Cn2nc(-c3ccc(Cl)cc3)n(C[C@H](OP(=O)([O-])[O-])C(F)(F)F)c2=O)nn1-c1ncccc1Cl.[Ca+2] [Example 23, Calcium (2S)-3-[1-{[5-carbamoyl-1-(3-chloropyridin-2-yl)-1H-1,2,4-triazol-3-yl]methyl}-3-(4-chlorophenyl)-5-oxo-1,5-dihydro-4H-1,2,4-triazol-4-yl]-1,1,1-trifluoropropan-2-yl Phosphate] | 27 |  | 73.5 | 2.7
